In patent US20250215014A1, “KINASE INHIBITORS, PREPARATION METHODS AND USES THEREOF” (InventisBio Co., Ltd., priority 2022, published 2025):
pIC50: −log10 of the molar value.

Columns and labels:
DGKa = DGKa (Homo sapiens (Human), UniProt P23743); experiment: DGK ADP-Glo Kinase Assay (DGKa); assay type: biochemical; conditions: 10 nM DGKa, 15 uM ATP
Method: (§1) Luminescence was recorded using an Tecan SPARK microplate reader.

DGKz = DGKz (Homo sapiens (Human), UniProt Q13574); experiment: DGK ADP-Glo Kinase Assay (DGKz); assay type: biochemical; conditions: 5 nM DGKz, 15 uM ATP
DGKz, sequence (Q13574 whole entry): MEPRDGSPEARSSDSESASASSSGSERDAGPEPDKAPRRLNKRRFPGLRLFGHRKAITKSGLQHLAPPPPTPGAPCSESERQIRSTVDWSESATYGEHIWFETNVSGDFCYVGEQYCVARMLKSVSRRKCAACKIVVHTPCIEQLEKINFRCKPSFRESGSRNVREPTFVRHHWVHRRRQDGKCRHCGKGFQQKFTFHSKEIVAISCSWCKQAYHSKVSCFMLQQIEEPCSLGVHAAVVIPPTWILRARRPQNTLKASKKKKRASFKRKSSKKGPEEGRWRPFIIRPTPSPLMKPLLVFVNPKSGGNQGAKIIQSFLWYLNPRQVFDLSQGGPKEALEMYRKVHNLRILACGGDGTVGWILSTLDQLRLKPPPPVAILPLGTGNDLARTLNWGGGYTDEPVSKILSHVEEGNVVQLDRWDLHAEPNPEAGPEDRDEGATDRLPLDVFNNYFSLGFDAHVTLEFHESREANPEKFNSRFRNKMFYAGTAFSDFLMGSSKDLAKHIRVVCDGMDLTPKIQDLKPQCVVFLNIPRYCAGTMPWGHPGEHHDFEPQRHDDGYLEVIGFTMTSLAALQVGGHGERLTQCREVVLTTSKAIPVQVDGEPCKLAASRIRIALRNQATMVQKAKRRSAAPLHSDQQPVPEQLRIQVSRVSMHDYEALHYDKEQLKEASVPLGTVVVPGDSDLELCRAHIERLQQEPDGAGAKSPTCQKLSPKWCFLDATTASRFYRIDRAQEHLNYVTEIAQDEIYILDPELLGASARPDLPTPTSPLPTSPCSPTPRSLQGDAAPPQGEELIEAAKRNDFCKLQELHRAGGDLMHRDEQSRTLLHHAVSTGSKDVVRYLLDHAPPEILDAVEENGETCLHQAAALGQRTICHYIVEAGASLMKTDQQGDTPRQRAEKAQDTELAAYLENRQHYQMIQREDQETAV
Method: as §1

DGKa, sequence (P23743 whole entry): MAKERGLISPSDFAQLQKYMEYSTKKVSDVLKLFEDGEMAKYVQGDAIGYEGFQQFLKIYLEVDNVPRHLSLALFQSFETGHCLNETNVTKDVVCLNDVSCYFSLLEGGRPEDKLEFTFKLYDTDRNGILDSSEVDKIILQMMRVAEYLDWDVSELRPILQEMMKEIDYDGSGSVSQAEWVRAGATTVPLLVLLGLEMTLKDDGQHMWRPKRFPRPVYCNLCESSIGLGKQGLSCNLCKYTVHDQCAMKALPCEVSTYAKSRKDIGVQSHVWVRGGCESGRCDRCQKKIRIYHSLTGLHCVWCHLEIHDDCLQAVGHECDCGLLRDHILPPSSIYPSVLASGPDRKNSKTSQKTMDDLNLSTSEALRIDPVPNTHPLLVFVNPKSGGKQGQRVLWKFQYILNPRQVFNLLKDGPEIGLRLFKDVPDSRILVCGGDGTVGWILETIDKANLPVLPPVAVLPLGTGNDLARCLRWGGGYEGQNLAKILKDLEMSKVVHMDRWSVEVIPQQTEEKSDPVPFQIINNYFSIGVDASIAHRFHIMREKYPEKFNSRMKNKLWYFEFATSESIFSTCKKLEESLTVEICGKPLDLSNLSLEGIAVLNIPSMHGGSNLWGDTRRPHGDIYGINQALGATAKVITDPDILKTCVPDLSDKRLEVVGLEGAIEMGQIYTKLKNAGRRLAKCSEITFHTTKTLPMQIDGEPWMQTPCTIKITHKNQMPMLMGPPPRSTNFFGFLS

Structure (SMILES) | pIC50 (DGKa) | pIC50 (DGKz)
CC[C@@H]1CN(c2nc(=O)n(C)c3ccc(C#N)nc23)[C@@H](C)CN1C(c1ccc(S(F)(F)(F)(F)F)cc1)c1nc(C2CC2)no1 (some centres unmarked) [Compound 65] | > 7.00 | > 7.00
CC[C@H]1CN([C@H](C)c2ccc(SC(F)(F)F)cc2)[C@H](CC)CN1c1nc2nncn2c2ccc(C#N)nc12 (stereo in doubt) [Compound 52] | > 7.00 | 6.00 to 7.00
CC[C@H]1CN([C@H](c2ccc(SC(F)(F)F)cc2)c2nc(C3CC3)no2)[C@H](CC)CN1c1nc(=O)n(C)c2ccc(C#N)nc12 (stereo in doubt) [Compound 70] | > 7.00 | > 7.00
CC[C@H]1CN([C@H](CC)c2ccc(OC(F)(F)F)cc2)[C@H](CC)CN1c1nc2nncn2c2ccc(C#N)nc12 (stereo in doubt) [Compound 101] | > 7.00 | 6.00 to 7.00
CC[C@H]1C[C@@H](c2nc3cc(C)ccc3o2)CCN1c1nc(=O)n(C)c2cc(O[C@@H]3CCOC3)c(Cl)cc12 [Compound 94] | 6.00 to 7.00 | < 6.00
CC[C@H]1CN([C@H](CC)c2nc(C3CC3)no2)[C@H](CC)CN1c1nc2nncn2c2ccc(C#N)nc12 [Compound 120] | > 7.00 | 6.00 to 7.00
CC[C@H]1CN(C(c2ccc(S(F)(F)(F)(F)F)cc2)C2CC2)[C@H](CC)CN1c1nc(=O)n(C)c2ccc(C#N)nc12 (single isomer, unassigned) [Compound 117] | > 7.00 | 6.00 to 7.00
CC[C@H]1CN(C(CO)c2ccc(S(F)(F)(F)(F)F)cc2)[C@H](CC)CN1c1nc(=O)n(C)c2ccc(C#N)nc12 (some centres unmarked) [Compound 77] | > 7.00 | > 7.00
CC[C@H]1CN([C@@H](CC)c2ccc(S(F)(F)(F)(F)F)cc2)[C@H](CC)CN1c1nc(=O)n(C)c2ccc(C#N)nc12 [Compound 28] | > 7.00 | > 7.00
CC[C@H]1CN([C@@H](c2ccc(SC(F)(F)F)cc2)c2nc(C3CC3)cs2)[C@H](CC)CN1c1nc(=O)n(C)c2ccc(C#N)nc12 [Compound 58] | > 7.00 | 6.00 to 7.00
CC[C@H]1CN([C@@H](CC)c2cccc(C(F)(F)F)c2)[C@H](CC)CN1c1nc2nncn2c2ccc(C#N)nc12 (stereo in doubt) [Compound 105] | > 7.00 | > 7.00
CC[C@@H]1CN2c3c(c(=O)n(C)c4ccc(C#N)nc34)OC[C@@H]2CN1[C@H](CC)c1ccc(C(F)(F)F)cc1 [Compound 122] | > 7.00 | > 7.00
CC[C@H]1CN([C@H](CC)c2ccc(S(F)(F)(F)(F)F)cc2)[C@H](CC)CN1c1nc(=O)n(C)c2ccc(C#N)nc12 [Compound 29] | > 7.00 | > 7.00
CC[C@H]1CN([C@@H](CC)c2ccc(OC(F)(F)F)cc2)[C@H](CC)CN1c1nc2nncn2c2ccc(C#N)nc12 (single isomer, unassigned) [Compound 100] | > 7.00 | > 7.00
N#Cc1ccc2c(n1)c(N1CCC3(CC1)CC(c1ccc(SC(F)(F)F)cc1)=NO3)nc1nncn12 [Compound 54] | > 7.00 | 6.00 to 7.00
CC[C@H]1CN([C@H](c2ccc(SC(F)(F)F)cc2)c2nc(C3CC3)cs2)[C@H](CC)CN1c1nc(=O)n(C)c2ccc(C#N)nc12 [Compound 57] | > 7.00 | 6.00 to 7.00
CN(c1cccc(C#CC2CC2)c1)c1nc(=O)n(C)c2ccc(C#N)nc12 [Compound 46] | > 7.00 | 6.00 to 7.00
CC[C@H]1CN([C@H](CC)c2ccc(S(F)(F)(F)(F)F)cc2)[C@H](CC)CN1c1nc(=O)n2c3c(cc(C#N)nc13)OCC2 (stereo in doubt) [Compound 79] | 6.00 to 7.00 | 6.00 to 7.00
CC[C@@H]1CN(c2nc3nncn3c3ccc(C#N)nc23)[C@@H](C)CN1[C@H](CC)c1ccc(SC(F)(F)F)cc1 (stereo in doubt) [Compound 71] | > 7.00 | 6.00 to 7.00
CC[C@H]1CN(C(c2ccc(S(F)(F)(F)(F)F)cc2)c2nc(C3CC3)no2)[C@H](CC)CN1c1nc(=O)n(C)c2ccc(C#N)nc12 (some centres unmarked) [Compound 64] | > 7.00 | > 7.00
N#Cc1cc2c3c(n1)c(N1CCC4(CC1)CC(c1ccc(OC(F)(F)F)cc1)=NO4)nc(=O)n3CCO2 [Compound 59] | > 7.00 | 6.00 to 7.00
CC[C@H]1CN([C@@H](CC)c2ccc(S(F)(F)(F)(F)F)cc2)[C@H](CC)CN1c1nc2nncn2c2ccc(C#N)nc12 (stereo in doubt) [Compound 86] | > 7.00 | > 7.00
CC[C@H]1CN(C(c2ccc(S(F)(F)(F)(F)F)cc2)C2CC2)[C@H](CC)CN1c1nc(=O)n(C)c2ccc(C#N)nc12 (single isomer, unassigned) [Compound 118] | > 7.00 | 6.00 to 7.00
CC[C@@H]1CN(c2nc(=O)n(C)c3ccc(C#N)nc23)[C@@H](C)CN1[C@H](CC)c1ccc(S(F)(F)(F)(F)F)cc1 (stereo in doubt) [Compound 61] | 6.00 to 7.00 | 6.00 to 7.00
CC[C@@H]1CN2c3c(c(=O)n(C)c4ccc(C#N)nc34)OC[C@@H]2CN1[C@H](CC)c1ccc(SC(F)(F)F)cc1 [Compound 124] | > 7.00 | 6.00 to 7.00
